# Experimental data reported in patent publication US6380387B1, “4-Pyrimidinyl-n-acyl-l phenylalanines” (Hoffmann-La Roche Inc., priority 1999, dated 2002).
# How the values were obtained:
# alpha4-beta7 = target: T1, alpha4-beta7 (Homo sapiens, UniProt P13612+P26010); test: Alpha4-Beta7 Assay (MadCAM/RPMI 8866 cell adhesion); type: cell-based; conditions: calcein labeled RPMI 8866 cells adhering to immobilized MadCAM
# T1 construct: Sufficient RPMI 8866 cells were removed from stock for assay; endogenous in cells; host or cells: RPMI 8866 cells
# T1 sequence (P13612 34-1032): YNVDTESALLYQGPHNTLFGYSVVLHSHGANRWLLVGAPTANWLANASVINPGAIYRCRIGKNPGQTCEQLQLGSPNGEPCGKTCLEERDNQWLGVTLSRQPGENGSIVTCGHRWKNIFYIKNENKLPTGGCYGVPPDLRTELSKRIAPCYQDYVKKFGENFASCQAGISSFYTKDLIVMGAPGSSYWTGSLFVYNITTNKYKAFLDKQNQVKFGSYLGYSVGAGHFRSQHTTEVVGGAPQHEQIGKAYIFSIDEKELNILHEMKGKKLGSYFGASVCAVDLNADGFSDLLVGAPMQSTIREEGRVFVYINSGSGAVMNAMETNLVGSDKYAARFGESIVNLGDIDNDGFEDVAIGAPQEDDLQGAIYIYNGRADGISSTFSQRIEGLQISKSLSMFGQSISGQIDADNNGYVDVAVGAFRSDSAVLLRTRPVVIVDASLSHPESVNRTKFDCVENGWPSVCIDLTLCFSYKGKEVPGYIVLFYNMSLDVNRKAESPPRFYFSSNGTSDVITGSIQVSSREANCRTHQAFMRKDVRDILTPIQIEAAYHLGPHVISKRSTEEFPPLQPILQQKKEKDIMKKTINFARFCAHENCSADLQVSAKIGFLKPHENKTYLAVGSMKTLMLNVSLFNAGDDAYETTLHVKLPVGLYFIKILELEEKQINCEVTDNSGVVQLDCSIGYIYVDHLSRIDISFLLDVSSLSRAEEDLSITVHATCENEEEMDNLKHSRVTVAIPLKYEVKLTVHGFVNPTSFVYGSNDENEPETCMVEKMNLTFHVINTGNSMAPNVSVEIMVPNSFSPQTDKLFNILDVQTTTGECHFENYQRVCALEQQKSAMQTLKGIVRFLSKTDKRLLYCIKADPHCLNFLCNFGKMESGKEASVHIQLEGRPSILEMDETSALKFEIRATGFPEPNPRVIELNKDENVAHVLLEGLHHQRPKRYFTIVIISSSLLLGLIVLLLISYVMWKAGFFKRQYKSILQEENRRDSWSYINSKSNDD
# T1 sequence (P26010 20-798): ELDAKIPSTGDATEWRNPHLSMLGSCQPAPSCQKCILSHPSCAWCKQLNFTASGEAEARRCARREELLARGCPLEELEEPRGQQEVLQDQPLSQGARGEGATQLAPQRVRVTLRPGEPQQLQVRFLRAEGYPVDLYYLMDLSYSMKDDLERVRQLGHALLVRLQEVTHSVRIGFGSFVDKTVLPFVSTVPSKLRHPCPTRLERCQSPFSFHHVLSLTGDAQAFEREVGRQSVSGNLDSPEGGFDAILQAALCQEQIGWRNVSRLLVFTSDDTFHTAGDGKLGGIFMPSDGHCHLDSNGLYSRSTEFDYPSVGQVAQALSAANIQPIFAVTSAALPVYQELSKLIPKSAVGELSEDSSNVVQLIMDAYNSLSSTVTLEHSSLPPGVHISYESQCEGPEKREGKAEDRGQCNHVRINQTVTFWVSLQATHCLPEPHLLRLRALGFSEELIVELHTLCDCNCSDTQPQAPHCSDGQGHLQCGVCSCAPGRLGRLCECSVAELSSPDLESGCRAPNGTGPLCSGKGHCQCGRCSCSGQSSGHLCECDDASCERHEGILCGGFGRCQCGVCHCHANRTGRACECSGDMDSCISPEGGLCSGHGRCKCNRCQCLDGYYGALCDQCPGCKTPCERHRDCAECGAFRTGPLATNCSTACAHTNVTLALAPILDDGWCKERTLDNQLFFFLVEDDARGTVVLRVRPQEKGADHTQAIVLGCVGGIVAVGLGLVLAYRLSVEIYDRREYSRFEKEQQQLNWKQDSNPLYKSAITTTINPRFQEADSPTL
# Experimental: Alpha4-Beta7 Assay Protocol
# Two weeks to one day prior to the assay, Nunc high-binding F96 Maxisorp immuno plates, #442404 or #439454, were coated with 25 ng/well (0.25 μg/ml) MadCAM in a volume of 100 μl/well. The plates were covered with sealer and wrapped in saran wrap followed by incubation in the refrigerator for at least 24 hours. The coating buffer employed was: 10 mM carbonate/bicarbonate buffer made up from: 0.8 g/L sodium carbonate and 1.55 g/L sodium bicarbonate adjusted to pH 9.6 with 1 N HCl. Assay buffers consisted of the following:
# Plates were washed 2× with wash buffer and then blocked at room temperature for at least 1 hour with Blocking Buffer. Sealed plates were sometimes blocked overnight in the refrigerator. Plates were then washed with PBS and hand blotted dry. Remaining liquid was aspirated from the wells.
# Sufficient RPMI 8866 cells were removed from stock for assay (2×10^6 cells/ml×10 ml/plate×number of plates) and placed in a centrifuge tube. The tubes were filled to volume with PBS and were spun at 200×G for 8 minutes. The buffer was poured off and the cells were resuspended to 10×10^6/ml in PBS and a stock solution of calcein in DMSO (5mg/mL) was added at 51 μl/ml of cell suspension. The suspension was incubated for 30 minutes at 37° C. in dark. The cells were then washed with PBS. The PBS was poured off and the cells resuspended in cell buffer at a concentration of 2×10^6 cells/mL for plating in the assay.
# Stock solution of test compounds at 25× first dilution desired in 100% DMSO were prepared. First dilutions for the standard, as well as test compounds, were 1:25 into straight Binding Buffer, while the remaining serial dilutions were into Dilution Buffer (Binding Buffer/4% DMSO). Stock concentrations and dilutions of compounds for screening were determined by anticipated activity.
# For the assay, 129 μl Binding Buffer was plated into first row of wells and 100 μl Dilution Buffer was plated into remaining wells. A 5.44 μl aliquot of each compound was pipetted into appropriate, labeled wells, in triplicate. The compounds were next diluted down the plate (34 μl+100 μl=>4-fold dilution). For controls, 100 μl of Dilution Buffer 100 μl Cell Buffer were plated into the nonspecific background wells (no cells, no compound) and 100 μl Dilution Buffer+100 μl cells were plated into the total binding wells (no compound=100% binding). Labeled cells at 2×10^6 cells/ml, 100 μl/well (=2×10^5 cells/well) were added to each well containing compound. The plates were sealed and incubated in the dark for 45 minutes at room temperature. Following incubation, unbound cells were removed by adding 150 μl PBS/well. The plates were inverted, blotted onto paper towels and washed by gently adding 200 μl PBS to wells and blotting again. Remaining buffer was carefully aspirated from the wells. A final 100 μl PBS was added to each well.
# The plates were then read for fluorescence intensity on a Cytofluor 2300 (Millipore) fluorecence measurement system (excitation=485 nm, emission=530 nm). IC50s of each compound were determined by linear regression analysis.
Compound,IC50 (alpha4-beta7) [µM],melting point [°C]
"Cc1cccc(C(C)C)c1C(=O)N[C@@H](Cc1ccc(-c2c(C)n(C)c(=O)n(C)c2=O)cc1)C(=O)O [Example 11, N-[[2-(2-methylethyl)-6-methylphenyl]carbonyl]-4-(1,3,6-trimethyl-2,4-dioxo-5-pyrimidinyl)-L-phenylalanine]",< 5,
"Cn1c(C(F)(F)F)c(-c2ccc(C[C@H](NC(=O)c3c(F)cccc3C(F)(F)F)C(=O)O)cc2)c(=O)n(C)c1=O [Example 23, N-[[2-fluoro-6-(trifluoromethyl)phenyl]carbonyl]-4-(1,3-dimethyl-2,4-dioxo-6-(trifluoromethyl)-5-pyrimidinyl)-L-phenylalanine]",< 10,122 to 125
"CCn1c(C)c(-c2ccc(C[C@H](NC(=O)c3c(Cl)cccc3Cl)C(=O)O)cc2)c(=O)n(CC)c1=O [Example 18, N-[(2,6-dichlorophenyl)carbonyl]-4-(1,3-diethyl-6-methyl-2,4-dioxo-5-pyrimidinyl)-L-phenylalanine]",< 0.1,
"Cn1c(C(F)(F)F)c(-c2ccc(C[C@H](NC(=O)c3c(Cl)cccc3Cl)C(=O)O)cc2)c(=O)n(C)c1=O [Example 21, N-[1-(2,6-dichlorophenyl)carbonyl]-4-(1,3-dimethyl-2,4-dioxo-6-(trifluoromethyl)-5-pyrimidinyl)-L-phenylalanine]",< 10,125 to 128
"Cc1c(-c2ccc(C[C@H](NC(=O)c3c(C(C)C)cccc3C(C)C)C(=O)O)cc2)c(=O)n(C)c(=O)n1C [Example 14, N-[[2,6-di-(2-methylethyl)phenyl]carbonyl]-4-(1,3,6-trimethyl-2,4-dioxo-5-pyrimidinyl)-L-phenylalanine]",< 5,
"Cc1cc(C[C@H](NC(=O)c2c(Cl)cccc2Cl)C(=O)O)ccc1-c1cn(C)c(=O)n(C)c1=O [Example 25, N-[(2,6-dichlorophenyl)carbonyl]-4-(1,3-dimethyl-2,4-dioxo-5-pyrimidinyl)-3-methyl-L-phenylalanine]",< 10,
"Cc1cc(C[C@H](NC(=O)c2c(Cl)cccc2Cl)C(=O)O)ccc1-c1c(C)n(C)c(=O)n(C)c1=O [Example 26, N-[(2,6-dichlorophenyl)carbonyl]-4-(1,3,6-trimethyl-2,4-dioxo-5-pyrimidinyl)-3-methyl-L-phenylalanine]",< 10,
"CCOC(=O)[C@H](Cc1ccc(-c2c(C)n(C)c(=O)n(C)c2=O)cc1)NC(=O)c1c(Cl)cccc1Cl [Example 27, N-[(2,6-dichlorophenyl)carbonyl]-4-(1,3,6-trimethyl-2,4-dioxo-5-pyrimidinyl)-L-phenylalanine ethyl ester]",< 10,
"Cc1cccc(Cl)c1C(=O)N[C@@H](Cc1ccc(-c2c(C(F)(F)F)n(C)c(=O)n(C)c2=O)cc1)C(=O)O [Example 22, N-[(2-chloro-6-methylphenyl)carbonyl]-4-[1,3-dimethyl-2,4-dioxo-6-(trifluoromethyl)-5-pyrimidinyl]-L-phenylalanine]",< 10,243 to 247
"CCn1c(C)c(-c2ccc(C[C@H](NC(=O)c3c(C)cccc3Cl)C(=O)O)cc2)c(=O)n(CC)c1=O [Example 19, N-[(2-chloro-6-methylphenyl)carbonyl]-4-(1,3-diethyl-6-methyl-2,4-dioxo-5-pyrimidinyl)-L-phenylalanine]",< 10,

# Results, then the compound that gave them:
IC50 (alpha4-beta7) [µM],melting point [°C],Compound
< 10,225 to 227,"CCCc1cccc(Cl)c1C(=O)N[C@@H](Cc1ccc(-c2c(C)n(C)c(=O)n(C)c2=O)cc1)C(=O)O [Example 16, N-[(2-chloro-6-propylphenyl)carbonyl]-4-(1,3,6-trimethyl-2,4-dioxo-5-pyrimidinyl)-L-phenylalanine]"
< 10,,"CCn1c(C)c(-c2ccc(C[C@H](NC(=O)C3(CCOC)CCCC3)C(=O)O)cc2)c(=O)n(CC)c1=O [Example 20, 4-(1,3-diethyl-6-methyl-2,4-dioxo-5-pyrimidinyl)-N-[[1-(2-methoxyethyl)cyclopentyl]carbonyl]-L-phenylalanine]"
< 0.1,,"Cc1cccc(Cl)c1C(=O)N[C@@H](Cc1ccc(-c2c(C)n(C)c(=O)n(C)c2=O)cc1)C(=O)O [Example 9, N-[(2-chloro-6-methylphenyl)carbonyl]-4-(1,3,6-trimethyl-2,4-dioxo-5-pyrimidinyl)-L-phenylalanine]"
< 0.1,,"COCCC1(C(=O)N[C@@H](Cc2ccc(-c3c(C)n(C)c(=O)n(C)c3=O)cc2)C(=O)O)CCCC1 [Example 7, N-[[1-(2-methoxyethyl)cyclopentyl]carbonyl]-4-(1,3,6-trimethyl-2,4-dioxo-5-pyrimidinyl)-L-phenylalanine]"
< 0.1,,"Cc1c(-c2ccc(C[C@H](NC(=O)c3c(F)cccc3F)C(=O)O)cc2)c(=O)n(C)c(=O)n1C [Example 12, N-[(2,6-difluorophenyl)carbonyl]-4-(1,3,6-trimethyl-2,4-dioxo-5-pyrimidinyl)-L-phenylalanine]"
< 10,127 to 133,"CCc1cccc(C)c1C(=O)N[C@@H](Cc1ccc(-c2c(C)n(C)c(=O)n(C)c2=O)cc1)C(=O)O [Example 10, N-[(2-ethyl-6-methylphenyl)carbonyl]-4-(1,3,6-trimethyl-2,4-dioxo-5-pyrimidinyl)-L-phenylalanine]"
< 0.1,,"Cc1c(-c2ccc(C[C@H](NC(=O)c3c(Cl)cccc3Cl)C(=O)O)cc2)c(=O)n(C)c(=O)n1C [Example 6, N-[(2,6-dichlorophenyl)carbonyl]-4-(1,3,6-trimethyl-2,4-dioxo-5-pyrimidinyl)-L-phenylalanine]"
